# Measured values as given in PubChem BioAssay (NCI).
#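 Five compound concentrations were applied to cells in 96-well plates for 48 hours; endpoints were derived by simple linear interpolation of the resulting dose-response curve. Abbreviation: GI50, concentration required for 50% inhibition of growth. TGI marks complete inhibition of growth.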
# Key:
# Assay in all cases: NCI tumour cell line growth inhibition, 48 h
# [1] = system: HOP-62 NSCLC
# [2] = system: MOLT-4 leukemia
# [3] = system: SN12C renal
# [4] = system: RXF 393 renal
# [5] = system: K-562 leukemia
# [6] = system: ACHN renal
# [7] = system: CAKI-1 renal
SMILES,TGI [1] [µM],TGI [2] [µM],TGI [3] [µM],TGI [4] [µM],TGI [5] [µM],TGI [6] [µM],TGI [7] [µM],GI50 [1] [µM],GI50 [3] [µM],GI50 [4] [µM],GI50 [5] [µM],GI50 [6] [µM]
c1ccc2c(c1)Cc1c(Cc3csc4ccccc34)ccc3cccc-2c13,> 100,> 100,> 100,> 100,> 100,> 100,,,,,,
COc1cc(/C=C(\NC(=O)c2ccccc2)c2nc3ncncc3[nH]2)cc(OC)c1OC,,> 100,> 100,> 100,> 100,> 100,> 100,,,,,
COc1ccc(/C=C/C(=O)c2c(-c3ccccc3)nn(C)c(=O)c2N2CCOCC2)cc1,,> 100,> 100,> 100,> 100,> 100,> 100,,,,,
CC1(C)C(=O)C(C)(C)C1=NNC(N)=S,> 100,> 100,> 100,> 100,> 100,> 100,> 100,,,,,
CC1(C)c2ccccc2N2O[C@@H]3C(=O)N(c4ccccc4)C(=O)[C@@H]3C21c1ccccc1 (some centres undefined),> 100,> 100,> 100,> 100,> 100,,> 100,,,,,
CCc1cc2c(O)c(c1)Cc1cc(CC)cc(c1O)Cc1cc(CC)cc(c1O)Cc1cc(CC)cc(c1O)Cc1cc(CC)cc(c1O)Cc1cc(CC)cc(c1O)Cc1cc(CC)cc(c1O)C2,> 100,> 100,> 100,43.3,,> 100,,,,,,
Nc1nc2c(-c3ccc([N+](=O)[O-])cc3)nnn2c2ccccc12,> 100,> 100,> 100,,> 100,> 100,> 100,,,,,
N#C/C(=C1\OC(=N)C(c2ccccc2)C1=O)c1ccccc1 (centres undefined),> 100,74.6,> 81.6,31.8,74.6,31.8,> 96.6,,,,,
O=C(N/C(=C\c1ccccc1O)c1nc2ccccc2[nH]1)c1ccccc1,> 100,> 100,> 100,> 100,> 100,> 100,> 100,,,,,
C(=C\C(Sc1ccccc1)c1ccccc1)/NNC1=NC(c2ccccc2)C(c2ccccc2)=NN1 (centres undefined),> 100,77.9,> 100,,38,> 100,> 100,,,,,
NS(=O)(=O)c1ccc(NC(=O)C2C(=O)C(=O)N(c3ccc(S(N)(=O)=O)cc3)C2=O)cc1 (centres undefined),> 100,> 100,> 100,> 100,> 100,> 100,> 100,,,,,
COc1ccc(OC)c(/C=C2\CCc3ccccc3C2=O)c1,10.8,19.8,25.5,6.07,10.8,81.2,> 100,,,,,
O=C(CC1C(=O)Nc2ccccc2S1(=O)=O)Nc1ccc(Cl)cc1 (centres undefined),,37.6,> 100,38.5,48.9,71.9,43.5,,,,,
Cc1ccc(/C=C/C(=O)c2sc(-n3nc(-c4ccccc4)cc3-c3ccccc3)nc2C)cc1,> 100,> 100,> 100,> 100,> 100,> 100,> 100,,,,,
O=C1C=C2CCCC2C(C(=O)O)(C(=O)O)C1 (centres undefined),> 100,> 100,> 100,> 100,> 100,,> 100,,,,,
COc1cc([C@@H]2c3cc4c(cc3[C@@H](OC(=O)c3cccc(N)c3)C3COC(=O)[C@@H]32)OCO4)cc(OC)c1O (some centres undefined),18,> 59.8,31.3,83.5,> 100,15.3,29.6,,,,,
CCOC(=O)c1[nH]c2cc(OC)c(OC)cc2c1CN(C)C,,> 100,> 100,> 100,> 100,> 100,> 100,,,,,
O=C(Nc1ccc(Cl)cc1C(=O)O)c1ccc([N+](=O)[O-])cc1,39.2,61.7,> 100,,90.4,49.6,,,,,,
C[N+](C)(C)c1cc[c]([Sn]([c]2ccc([N+](C)(C)C)cc2)([c]2ccc([N+](C)(C)C)cc2)[c]2ccc([N+](C)(C)C)cc2)cc1,> 100,,> 100,> 100,> 100,> 100,,> 100,> 100,> 100,> 100,> 100
O=C(CCC(=O)Nc1cccc(C(F)(F)F)c1)CC(=O)c1ccc2ccccc2c1,,> 100,> 100,,> 100,> 100,> 100,,,,,
CC1=CP(=O)(c2ccccc2)C=C(C)C1=C(Cl)Cl (centres undefined),12.5,21.6,81.8,33.5,13.6,,,,,,,
CC(=O)NNc1nc(C)c(C(=O)NNC(=O)C(=O)Nc2c([N+](=O)[O-])ccc(C)c2C)s1,> 100,> 100,> 100,,> 100,> 100,> 100,,,,,
